The text below walks through data of patent publication US9957257B2, “Amide compounds as 5-HT4 receptor agonists” (SUVEN LIFE SCIENCES LIMITED, priority 2015, dated 2018).

The nature of data set [1]: Rodent pharmacokinetic study. The format is in vivo, Male wistar rats. Particulars: male, Wistar, plasma, rat. As for the experimental part:
Male wistar rats (225±25 grams) were used as experimental animals. Three to five animals were housed in each cage. Two days prior to dosing day, male wistar rats (225-250 grams) were anesthetized with isoflurane for surgical placement of jugular vein catheter. Animals were fasted overnight before oral dosing (p.o) and food pellets were allowed 2 hours post dosing, whereas during intravenous dosing food and water were provided as ad libitum. Three rats were dosed with test compounds (3 mg/kg) orally and intravenously (1 mg/kg).
At each time point blood was collected through jugular vein and immediately replenish with an equivalent volume of normal saline from freely moving rats. Collected blood was transferred into a labeled eppendr off containing 10 μL of heparin as anticoagulant. Typically blood samples were collected as following time points: Pre dose, 0.08 (only i.v.), 0.25, 0.5, 1, 2, 4, 6, 8, and 24 hours post dose-(n=3). Blood was centrifuged at 4000 rpm for 10 minutes. Plasma was prepared and stored frozen at −20° C. until analysis. The concentrations of the test compounds were quantified in plasma by qualified LC-MS/MS method using suitable extraction technique. The test compounds were quantified in the calibration range around 2-2000 ng/mL in plasma. Study samples were analyzed using calibration samples in the batch and quality control samples spread across the batch.
Pharmacokinetic parameters Cmax, Tmax, AUCt, T1/2 and Bioavailability were calculated by non-compartmental model using standard non-compartmental model by using WinNonLin 5.0.1 or Phoenix WinNonlin 6.2 version Software package.

Data set [2] can be described thus: Rodent brain penetration study. The format is in vivo, Male Wistar rats. To be noted: male, Wistar, rat, 3 mg/kg, oral (gavage), read-out: Single dose Brain Penetration (Cb/Cp). As for the experimental part:
Male Wistar rats (225±25 grams) were used as experimental animals. Three animals were housed in each cage. Animals were given water and food ad libitum throughout the experiment and maintained on a 12 hours light/dark cycle. Brain penetration was determined in discrete manner in rats. One day prior to dosing day, male wistar rats (225-250 grams) were acclimatized. After acclimatization the rats were grouped according to their weight. In each group, 3 animals were kept in individual cage and allowed free access to food and water. At each time point (0.50, 1 and 2 hours) n=3 animals were used. The test compounds were suitably preformulated and administered orally at (free base equivalent) 3 mg/kg. Blood samples were removed via, cardiac puncture by using isoflurane anesthesia. The animals were sacrificed to collect brain tissue. Plasma was separated and brain samples were homogenized and stored frozen at −20° C. until analysis. The concentrations of the test compounds in plasma and brain were determined using LC-MS/MS method. The test compounds were quantified in plasma and brain homogenate by qualified LC-MS/MS method using suitable extraction technique. The test compounds were quantified in the calibration range of 1-500 ng/mL in plasma and brain homogenate. Study samples were analyzed using calibration samples in the batch and quality control samples spread across the batch. Extent of brain-plasma ratio was calculated (Cb/Cp).

The nature of data set [3]: Object recognition task model. The format is in vivo, Male Wistar rats. To be noted: 0.003 mg/kg, p.o. How it is done: The cognition enhancing properties of compounds of this invention were estimated by using this model.
Male Wistar rats (230-280 grams) were used as experimental animals. Four animals were housed in each cage. Animals were kept on 20% food deprivation before one day and given water ad libitum throughout the experiment and maintained on a 12 hours light/dark cycle. Also the rats were habituated to individual arenas for 1 hour in the absence of any objects.
One group of 12 rats received vehicle (1 mL/Kg) orally and another set of animals received compound of the formula (I) either orally or i.p., before one hour of the familiar (T1) and choice trial (T2).
The experiment was carried out in a 50×50×50 cm open field made up of acrylic. In the familiarization phase, (T1), the rats were placed individually in the open field for 3 minutes, in which two identical objects (plastic bottles, 12.5 cm height×5.5 cm diameter) covered in yellow masking tape alone (a1 and a2) were positioned in two adjacent corners, 10 cms from the walls. After 24 hours of the (T1) trial for long-term memory test, the same rats were placed in the same arena as they were placed in T1 trial. Choice phase (T2) rats were allowed to explore the open field for 3 minutes in presence of one familiar object (a3) and one novel object (b) (Amber color glass bottle, 12 cm high and 5 cm in diameter). Familiar objects presented similar textures, colors and sizes. During the T1 and T2 trial, explorations of each object (defined as sniffing, licking, chewing or having moving vibrissae whilst directing the nose towards the object at a distance of less than 1 cm) were recorded separately by stopwatch. Sitting on an object was not regarded as exploratory activity, however, it was rarely observed.
T1 is the total time spent exploring the familiar objects (a1+a2).
T2 is the total time spent exploring the familiar object and novel object (a3+b).
The object recognition test was performed as described by Behaviour Brain Research, 31 (1988), 47-59.

Data set [4] is described as follows: Radial arm maze. The format is in vivo, rats. Particulars: p.o. The source says:
The cognition enhancing properties of test compounds of this invention were estimated by using this model.
Radial arm maze consists of a central hub of 45 cm diameter. Each arm was of dimension 42.5×15×24 cm. The maze was elevated to a height of 1 m above the ground. The animals were placed on a restricted diet until they reached approximately 85% of their free feeding weight. During this diet restriction period animals were habituated to the novel feed (pellets). Once the rats reached approximately 85% of their free feeding weight, rats were habituated to the maze on the 1st and 2nd day. […] Animals were randomized on day 2. On the subsequent days the treatment was given as per the allotment. Each animal was introduced into the maze individually for a period of 10 minutes. The arms were baited only once and the animal had to learn the rule that repeated arm entries would not be rewarded. The trial ended once the rat had visited 16 arms or 10 minutes were over or all the pellets were eaten. The arm entries were recorded using the software. Once the trial was over the rat was removed and the maze was cleaned using soap water.

The term AUC(0-t) denotes exposure summed from dosing to a finite time, without extrapolation to infinity. What is called half-life is the time in which the quantity being followed falls by half. The low end stands for fast loss, the high end for slow loss. A word on the bioavailability: it is the share of a dose that reaches the circulation, judged against a reference dose that is usually intravenous. Low readings indicate poor availability, high ones good availability. In general, Cmax refers to the peak of the concentration-time curve. The Tmax is the time at which the peak concentration occurs. In data set [1] (1 mg/kg, intravenous (bolus)), `Nc1c(Cl)cc(C(=O)NCC2C3CN(CC4CCOCC4)CC23)c2c1CCCO2.O=C(O)C(O)C(O)C(=O)O` (stereo not drawn) [Example 3, 5-Amino-6-chloro-N-{[3-(tetrahydro-2H-pyran-4-ylmethyl)-3-azabicyclo[3.1.0]hex-6-yl]methyl}chroman-8-carboxamide L(+)-tartarate] had an AUC(0-t) of 158 ± 7 ng·h/mL and a half-life of 114 min. In data set [1] (3 mg/kg oral vs 1 mg/kg intravenous), the bioavailability came to 68 ± 22%. In addition, in data set [1] (3 mg/kg, oral (gavage)), the area under the curve AUC(0-t) was 324 ± 105 ng·h/mL, the Cmax came out at 131 ± 35 ng/mL, the Tmax worked out at 25.2 min and the half-life is 96 min. Besides, in data set [2], the Kp turned out to be 1.03 ± 0.02. Further, in data set [3], the “Exploration time mean ± S.E.M, Familiar object” value was 9.9 ± 2.06 s; the “Exploration time mean ± S.E.M, Novel object” value came to 17.58 ± 2.24 s; the Inference result was “Active”. Also, the “Reversal of Scopolamine Induced amnesia - Effective dose range” value in data set [4] is reported as 0.03 mg/kg, p.o.
